The values that follow come from patent publication US20260216067A1, “CARRIER AS A MULTIFUNCTIONAL SYSTEM” (LIFESOME THERAPEUTICS, S.L., priority 2022, published 2026).

The test system of one data set is PC3. Briefly: MTT cell viability test, PC3. In kind it is cell-based. Particulars: Homo sapiens, PC-3, 72 h, up to 3 days, read-out: tumor cell viability. As to the method:
(§1) Ohmline nanoparticles were used to deliver docetaxel into different cancer cell lines. Cell viability was determined using tetrazolium salt reduction method (MTT)(CyQUANT™ MTT Cell Viability Assary, Thermo Fisher Scientific product V13154: https://www.thermofisher.com/order/catalog/product/V13154?ef_id=4431670897231bd9f4af0 436727d3335: G: s&s_kwcid=AL!3652!10!77240846955634!77240903742099&cid=bid_pca_i va_r01_co_cp1359_pjt0000_bid00000_Ose_bng_nt_pur_con&msclkid=4431670897231bd9f 4af0436727d3335 #/V13154), that reflects the number of viable cells. 6500 cells were seeded at day=0 in a 48 wells plate. Each well was filled up with the regular medium of the cancer cell. At day=1 the medium was aspirated and replaced with new media for each formulation to be tested. Cells were incubated up to 3 days.
(§2) At the end of the incubation, the medium was aspirated and replaced with MTT solution at 0.5 mg/ml concentration. The plate was incubated at 37° C. by 30-45 min. After incubation the supernatant was aspirated, and the formed crystals dissolved with DMSO and gently agitation at room temperature protected from the light. 200 μl were transferred from each well to 96 well plates to measure the absorbance at 570 nm. (see FIGS. 8A, 8B and 8C).
(§3) Ohmline control at 1 and 5 μM, in MLV formulation.
(§4) DOX is docetaxel at 0,5 and 1 nM, in DMSO. […]

The next data set concerns MDA MB 435. Briefly: MTT cell viability test, MDA MB 435. In kind it is cell-based. To be noted: Homo sapiens, 72 h, up to 3 days, read-out: tumor cell viability. The procedure: as §1, §2, §3, §4
On the technique in general: Formazan colour is commonly taken as a measure of viable cells.

In another data set the test system is MCF7. Description: MTT cell viability test, MCF7. In kind it is cell-based. Particulars: Homo sapiens, 72 h, up to 3 days, read-out: tumor cell viability. The procedure:
as §1, §2, §3, §4

A further data set concerns MDA MB 231. Description: MTT cell viability test, MDA MB 231. In kind it is cell-based. Particulars: Homo sapiens, 72 h, up to 3 days, read-out: tumor cell viability. As to the method: as §1, §2, §3, §4
The subject of another data set is SW620. Briefly: MTT cell viability test, SW620. Particulars: Homo sapiens, SW-620, 72 h, up to 3 days, read-out: tumor cell viability. In kind it is cell-based. The procedure:
as §1, §2, §3, §4

Data set [1] relates to MDA-MB-231, HCT116, PC3, HaCaT and fibroblasts. Particulars: 25 μM for 48 h; cited from earlier work.
The target of another data set is IKCa/SK4 channel (Homo sapiens, UniProt O15554). To be noted: cited from earlier work.
Sequence of IKCa/SK4 channel (O15554 whole entry): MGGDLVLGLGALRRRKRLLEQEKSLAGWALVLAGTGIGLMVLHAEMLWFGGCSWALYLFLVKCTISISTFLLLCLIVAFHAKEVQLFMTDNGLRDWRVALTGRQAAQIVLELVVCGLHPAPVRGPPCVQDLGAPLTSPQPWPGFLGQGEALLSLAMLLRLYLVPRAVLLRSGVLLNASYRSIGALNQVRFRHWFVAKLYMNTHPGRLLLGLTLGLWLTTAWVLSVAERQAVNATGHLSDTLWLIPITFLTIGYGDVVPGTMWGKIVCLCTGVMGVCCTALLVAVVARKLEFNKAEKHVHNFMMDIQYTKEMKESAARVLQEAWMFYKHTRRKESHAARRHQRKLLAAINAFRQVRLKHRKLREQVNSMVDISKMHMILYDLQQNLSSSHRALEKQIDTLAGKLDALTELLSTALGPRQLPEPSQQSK
For data set [2] the following is noted: cited from earlier work.
For data set [3] the following is noted: 15 mg/Kg, up to 4 months treatment; cited from earlier work.
The next data set concerns the target SK2 channel (Homo sapiens, UniProt Q9H2S1). To be noted: cited from earlier work.
For data set [4] the following is noted: Ames tests; cited from earlier work. For orientation: In the Ames test, an excess of revertant colonies over the control signals mutagenicity.
The nature of data set [5]: ADME studies, distribution. In kind it is in vivo.
The target in data set [6] is receptors for platelet activating factor (PAF) (Homo sapiens, UniProt P25105). Particulars: cited from earlier work.
Sequence of receptors for platelet activating factor (PAF) (P25105 whole entry): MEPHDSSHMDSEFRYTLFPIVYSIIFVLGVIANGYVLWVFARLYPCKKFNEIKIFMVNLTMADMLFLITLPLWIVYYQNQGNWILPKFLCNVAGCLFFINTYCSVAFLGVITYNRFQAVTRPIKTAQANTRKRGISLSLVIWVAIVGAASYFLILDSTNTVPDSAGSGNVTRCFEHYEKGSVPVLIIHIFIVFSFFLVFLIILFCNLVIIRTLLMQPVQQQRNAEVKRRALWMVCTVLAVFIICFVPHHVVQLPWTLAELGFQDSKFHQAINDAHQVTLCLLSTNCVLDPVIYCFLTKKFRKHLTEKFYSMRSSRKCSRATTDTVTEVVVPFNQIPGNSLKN
The next data set concerns the target SK3 channel (Homo sapiens, UniProt Q9UGI6). Particulars: cited from earlier work.
The conditions of data set [7]: cited from earlier work. This is another data set of the same source.
The test system of another data set is protein kinase C (PKC). To be noted: cited from earlier work.
The test system of another data set is SKCa channels. Particulars: cited from earlier work.
The subject of data set [8] is receptors for lysophosphatidic acid (LPA). Particulars: cited from earlier work.
The test system of the next data set is SK3-expressing cells. Particulars: in vivo; cited from earlier work.
Data set [9] deals with SK3-expressing cancer cells. Particulars: at 10 nM; cited from earlier work.
For data set [10] the following is noted: rodents; no observable tissue damage by a pathologist; cited from earlier work.

Sequence of SK2 channel (Q9H2S1 whole entry): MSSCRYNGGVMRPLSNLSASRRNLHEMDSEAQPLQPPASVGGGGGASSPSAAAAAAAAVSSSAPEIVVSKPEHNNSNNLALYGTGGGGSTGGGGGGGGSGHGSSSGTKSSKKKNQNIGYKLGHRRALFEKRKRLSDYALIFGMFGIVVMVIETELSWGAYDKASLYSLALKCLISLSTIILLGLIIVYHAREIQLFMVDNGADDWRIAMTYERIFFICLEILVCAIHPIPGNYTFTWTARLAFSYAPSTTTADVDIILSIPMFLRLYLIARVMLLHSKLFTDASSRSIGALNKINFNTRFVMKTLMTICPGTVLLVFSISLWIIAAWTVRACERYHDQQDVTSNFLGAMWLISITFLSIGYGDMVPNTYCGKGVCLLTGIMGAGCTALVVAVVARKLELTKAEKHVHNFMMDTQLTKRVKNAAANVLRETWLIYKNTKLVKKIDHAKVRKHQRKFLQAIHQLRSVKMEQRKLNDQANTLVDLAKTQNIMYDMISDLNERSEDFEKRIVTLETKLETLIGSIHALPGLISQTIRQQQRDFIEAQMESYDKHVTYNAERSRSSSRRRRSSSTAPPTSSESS

For `CC(=O)O[C@@]12CO[C@@H]1C[C@H](O)[C@@]1(C)C(=O)[C@H](O)C3=C(C)[C@@H](OC(=O)[C@H](O)[C@@H](NC(=O)OC(C)(C)C)c4ccccc4)C[C@@](O)([C@@H](OC(=O)c4ccccc4)[C@H]21)C3(C)C` [DOX, docetaxel], the viability at 0.0005 µM in the data set on PC3 (DOX 0.5 nM in DMSO) came out at 79%; in the data set with MDA MB 435 (DOX 0.5 nM in DMSO), 100%; with MCF7 (DOX 0.5 nM in DMSO), 97%; in the data set with MDA MB 231 (DOX 0.5 nM in DMSO) it was 72%; with SW620 (DOX 0.5 nM in DMSO) it was 99%. The viability at 0.001 µM was 73% with PC3 (DOX 1 nM in DMSO); 69% in the data set with MDA MB 435 (DOX 1 nM in DMSO); 84% with MCF7 (DOX 1 nM in DMSO); 73% with MDA MB 231 (DOX 1 nM in DMSO); 92% with SW620 (DOX 1 nM in DMSO).

For `CCCCCCCCCCCCCCCCCCOCC(COP(=O)([O-])OCC[N+](C)(C)C)OC` (centres unmarked) [Edelfosine], in data set [1], the cells still alive is reported as around 0%.

`CCCCCCCCCCCCCCCCOCC(COC1OC(CO)C(OC2OC(CO)C(O)C(O)C2O)C(O)C1O)OC` (centres unmarked) [Ohmline, 1-O-hexadecyl-2-O-methyl-sn-glycero-3-lactose]: the “effect on IKCa/SK4 channel” value at IKCa/SK4 channel is “did not affect”. For the same molecule, in [2] (at 100 μM), the micronuclei test effect entry is reported as “weak positive effect”. The “in vitro concentrations with no toxicity or genotoxicity” value in data set [2] (concluded from Ames and micronuclei tests) is reported as “lower than 10 μM”. Besides, the acute toxicity entry in [3] is listed as “no acute toxicity”. Also, the “effect on SK2 channel” value on SK2 channel is “only slightly but not significantly affected”. For the same molecule, the mutagenic potential entry in data set [4] is “no mutagenic potential”. In [5], the distribution to brain entry is on record as “able to cross the blood brain barrier”. In addition, the “effect on receptors for platelet activating factor (PAF)” value in data set [6] is “no effect”. The half-maximal inhibitory concentration (IC50) on SK3 channel (SK3 channel) was 300 nM. The “potency SK3 versus SK1 channel” value at SK3 channel is recorded as “greater for SK3 channel than for SK1 channel”. Besides, the persistence in brain result in [7] (after the end of administration) is listed as “present in brain still two weeks after the end of its administration”. Moreover, the incorporation in tissues result in data set [7] (stomach, intestine, kidney, liver, heart and brain) is “incorporated in the tissues tested”. Also, in the data set on protein kinase C (PKC), the “effect on protein kinase C (PKC)” value is “no effect”. Moreover, the “displacement of apamin from SKCa channels” value in the data set on SKCa channels is “did not displace”. Further, the “effect on receptors for lysophosphatidic acid (LPA)” value in data set [8] is given as “no effect”. The metastasis development entry in the data set with SK3-expressing cells was “reduce not only bone metastasis development but also lung and lymph node metastases”. For the same molecule, the “reduction of migration of SK3-expressing cancer cells (efficiency)” value in data set [9] was 50%. Besides, the tolerance and safety result in data set [10] was “good tolerance and an apparent safety”.

What is called viability is a per cent measure of how many cells are alive, often set against a control. The IC50 is the concentration at which inhibition is half-maximal.
